PubChem BioAssay AID180 (DTP/NCI, 2004)
Where “and” joins values, the source holds several entries; their conditions need not be identical. Identical values can stand only once.

System: BDF1 mice, Adenocarcinoma 755 s.c., tumor weight T/C
Experiment: NCI In Vivo Anticancer Drug Screen. Data for tumor model Adenocarcinoma 755 (subcutaneous) in B6D2F1 (BDF1) mice
Conditions: endpoint: mean tumor weight, schedule: Q01DX011 (ip), higher = larger tumour
How it was run: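 In vivo antitumor screen on a transplantable tumor line. Result equals the measure in compound-treated animals divided by the same measure in vehicle controls.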

[1] = dose: 15.0 mg/kg/injection, vehicle: methylcellulose (MC)
[2] = dose: 30.0 mg/kg/injection, vehicle: carboxymethylcellulose (CMC)
[3] = dose: 125.0 mg/kg/injection, vehicle: carboxymethylcellulose (CMC)
[4] = dose: 250.0 mg/kg/injection, vehicle: carboxymethylcellulose (CMC)

With `OCCn1cnc2c(=S)nc[nH]c21` the T/C (dose: 25.0 mg/kg/injection, vehicle: methylcellulose (MC)) was 38 % of control, the T/C (dose: 75.0 mg/kg/injection, vehicle: methylcellulose (MC)) was 74 % of control and the T/C (dose: 225.0 mg/kg/injection, vehicle: methylcellulose (MC)) was 34 % of control.
With `COc1ccc2c(c1)/C(=C/CCN(C)C)c1ccccc1S2` the T/C (dose: 1.0 mg/kg/injection, vehicle: methylcellulose (MC)) was 87 % of control, the T/C (dose: 2.0 mg/kg/injection, vehicle: methylcellulose (MC)) was 87 % of control and the T/C (dose: 3.0 mg/kg/injection, vehicle: methylcellulose (MC)) was 27 % of control. For the same molecule, the T/C (dose: 4.0 mg/kg/injection, vehicle: carboxymethylcellulose (CMC)) was 93 % of control, the T/C (dose: 7.0 mg/kg/injection, vehicle: carboxymethylcellulose (CMC)) was 29 % of control and the T/C (dose: 7.0 mg/kg/injection, vehicle: methylcellulose (MC)) was 42 % of control. For the same molecule, the T/C (dose: 15.0 mg/kg/injection, vehicle: carboxymethylcellulose (CMC)) was 67 % of control, the T/C [1] was 39 % of control and the T/C [2] was 47 % of control.
For `O=c1[nH]cnc2c1ncn2CCO`, the T/C (dose: 43.75 mg/kg/injection, vehicle: methylcellulose (MC)) was 40 % of control, the T/C (dose: 87.5 mg/kg/injection, vehicle: methylcellulose (MC)) was 100 % of control and the T/C (dose: 175.0 mg/kg/injection, vehicle: methylcellulose (MC)) was 123 % of control. For the same molecule, the T/C (dose: 350.0 mg/kg/injection, vehicle: methylcellulose (MC)) was 99 % of control.
With `COc1cc([C@@H]2c3cc4c(cc3[C@H](O)[C@H]3COC(=O)[C@H]23)OCO4)cc(OC)c1OC` the T/C (dose: 0.13 mg/kg/injection, vehicle: carboxymethylcellulose (CMC)) was 102 % of control, the T/C (dose: 0.27 mg/kg/injection, vehicle: carboxymethylcellulose (CMC)) was 60 % of control and 80 % of control and the T/C (dose: 0.54 mg/kg/injection, vehicle: carboxymethylcellulose (CMC)) was 109 % of control. For the same molecule, the T/C (dose: 0.55 mg/kg/injection, vehicle: carboxymethylcellulose (CMC)) was 76 % of control, the T/C (dose: 1.08 mg/kg/injection, vehicle: carboxymethylcellulose (CMC)) was 120 % of control and the T/C (dose: 1.1 mg/kg/injection, vehicle: carboxymethylcellulose (CMC)) was 117 % of control.
For `Nc1nc(NC2CCCCC2)cc(=O)[nH]1`, the T/C (dose: 50.0 mg/kg/injection, vehicle: methylcellulose (MC)) was 56 % of control, the T/C (dose: 100.0 mg/kg/injection, vehicle: methylcellulose (MC)) was 55 % of control and the T/C (dose: 200.0 mg/kg/injection, vehicle: methylcellulose (MC)) was 51 % of control. The T/C (dose: 400.0 mg/kg/injection, vehicle: methylcellulose (MC)) was 33 % of control.
With `Cc1cc(N(CCCl)CCCl)ccc1N=Nc1ccccc1C(=O)O` the T/C (dose: 0.44 mg/kg/injection, vehicle: carboxymethylcellulose (CMC)) was 115 % of control, the T/C (dose: 0.87 mg/kg/injection, vehicle: carboxymethylcellulose (CMC)) was 39 % of control and the T/C (dose: 1.75 mg/kg/injection, vehicle: carboxymethylcellulose (CMC)) was 53 % of control. The T/C (dose: 3.5 mg/kg/injection, vehicle: carboxymethylcellulose (CMC)) was 20 % of control.
With `O=S1(=O)CCCO1` the T/C (dose: 80.0 mg/kg/injection, vehicle: carboxymethylcellulose (CMC)) was 32 % of control and 33 % of control.
In the case of `S=c1c2[nH]cnc2ncn1CCSC1=NC=NC2=NC=NC21` (stereo unspecified), the T/C (dose: 4.0 mg/kg/injection, vehicle: methylcellulose (MC)) is reported as 61 % of control, the T/C (dose: 8.0 mg/kg/injection, vehicle: methylcellulose (MC)) is reported as 71 % of control and the T/C (dose: 16.0 mg/kg/injection, vehicle: methylcellulose (MC)) is reported as 19 % of control.
`N#[N+]c1cnc([O-])[nH]c1=O` was tested, and the T/C (dose: 1.25 mg/kg/injection, vehicle: carboxymethylcellulose (CMC)) was 111 % of control, the T/C (dose: 1.41 mg/kg/injection, vehicle: carboxymethylcellulose (CMC)) was 80 % of control and the T/C (dose: 1.47 mg/kg/injection, vehicle: carboxymethylcellulose (CMC)) was 116 % of control. For the same molecule, the T/C (dose: 2.5 mg/kg/injection, vehicle: carboxymethylcellulose (CMC)) was 53 % of control, the T/C (dose: 2.83 mg/kg/injection, vehicle: carboxymethylcellulose (CMC)) was 108 % of control and the T/C (dose: 2.95 mg/kg/injection, vehicle: carboxymethylcellulose (CMC)) was 98 % of control. The T/C (dose: 5.0 mg/kg/injection, vehicle: carboxymethylcellulose (CMC)) was 39 % of control, the T/C (dose: 5.65 mg/kg/injection, vehicle: carboxymethylcellulose (CMC)) was 94 % of control and the T/C (dose: 5.9 mg/kg/injection, vehicle: carboxymethylcellulose (CMC)) was 76 % of control. The T/C (dose: 11.3 mg/kg/injection, vehicle: carboxymethylcellulose (CMC)) was 49 % of control, the T/C (dose: 1170.0 micrograms/kg/injection, vehicle: carboxymethylcellulose (CMC)) was 86 % of control and the T/C (dose: 2925.0 micrograms/kg/injection, vehicle: carboxymethylcellulose (CMC)) was 78 % of control.
With `NC(=O)NO` the T/C (dose: 15.97 mg/kg/injection, vehicle: carboxymethylcellulose (CMC)) was 76 % of control, the T/C (dose: 25.0 mg/kg/injection, vehicle: carboxymethylcellulose (CMC)) was 111 % of control and the T/C (dose: 31.93 mg/kg/injection, vehicle: carboxymethylcellulose (CMC)) was 67 % of control. The T/C (dose: 50.0 mg/kg/injection, vehicle: carboxymethylcellulose (CMC)) was 83 % of control, the T/C (dose: 51.08 mg/kg/injection, vehicle: carboxymethylcellulose (CMC)) was 56 % of control and the T/C (dose: 62.5 mg/kg/injection, vehicle: carboxymethylcellulose (CMC)) was 31 % of control. For the same molecule, the T/C (dose: 63.85 mg/kg/injection, vehicle: carboxymethylcellulose (CMC)) was 41 % of control and 47 % of control, the T/C (dose: 85.13 mg/kg/injection, vehicle: carboxymethylcellulose (CMC)) was 53 % of control and the T/C (dose: 100.0 mg/kg/injection, vehicle: carboxymethylcellulose (CMC)) was 58 % of control. For the same molecule, the T/C [3] was 44 % of control, the T/C (dose: 127.7 mg/kg/injection, vehicle: carboxymethylcellulose (CMC)) was 22 % of control and 39 % of control and the T/C (dose: 200.0 mg/kg/injection, vehicle: carboxymethylcellulose (CMC)) was 13 % of control. The T/C [4] was 6 % of control and 12 % of control and 19 % of control and the T/C (dose: 500.0 mg/kg/injection, vehicle: carboxymethylcellulose (CMC)) was 19 % of control.
For `CCOC(=O)CCCc1ccc(N=NN(C)CC(C)C)cc1`, the T/C [3] was 47 % of control and the T/C [4] was 28 % of control.
`SCc1ccccn1` was tested, and the T/C (dose: 37.8 mg/kg/injection, vehicle: carboxymethylcellulose (CMC)) was 109 % of control and the T/C (dose: 300.0 mg/kg/injection, vehicle: carboxymethylcellulose (CMC)) was 97 % of control.
In the case of `CC(=O)Nc1nc(Cl)c2ncn(C3CCCO3)c2n1` (stereo unspecified), the T/C [2] is reported as 106 % of control, the T/C (dose: 60.0 mg/kg/injection, vehicle: carboxymethylcellulose (CMC)) is reported as 38 % of control and the T/C (dose: 240.0 mg/kg/injection, vehicle: carboxymethylcellulose (CMC)) is reported as 19 % of control and 42 % of control.
In the case of `CC(C)CN1CC(C)C(=O)N(c2ccccc2)C1=S` (stereo unspecified), the T/C [1] is reported as 51 % of control, the T/C (dose: 31.0 mg/kg/injection, vehicle: methylcellulose (MC)) is reported as 89 % of control and the T/C (dose: 62.0 mg/kg/injection, vehicle: methylcellulose (MC)) is reported as 79 % of control. The T/C (dose: 125.0 mg/kg/injection, vehicle: methylcellulose (MC)) was 57 % of control.
